This test deals with CD2F1 mice, L1210 leukemia ip, survival T/C. Briefly: NCI In Vivo Anticancer Drug Screen. Data for tumor model L1210 Leukemia (intraperitoneal) in CD2F1 (CDF1) mice. The settings on record: higher = longer survival. The gist of the method:
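Vehicle-treated tumor-bearing mice served as controls (C) for compound-treated mice (T). Reported figure is T divided by C.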

The mark [1] stands for this setting: endpoint: mean survival time, dose: 100.0 mg/kg/injection, schedule: Q01DX009 (ip), vehicle: saline with Tween-80.
The mark [2] stands for this setting: endpoint: mean survival time, dose: 200.0 mg/kg/injection, schedule: Q01DX009 (ip), vehicle: saline with Tween-80.
Setting [3] is: endpoint: mean survival time, dose: 400.0 mg/kg/injection, schedule: Q01DX009 (ip), vehicle: saline with Tween-80.
Where [4] appears, read: endpoint: mean survival time, dose: 100.0 mg/kg/injection, schedule: Q01DX001 (ip), vehicle: carboxymethylcellulose (CMC).
The mark [5] stands for this setting: endpoint: mean survival time, dose: 200.0 mg/kg/injection, schedule: Q01DX001 (ip), vehicle: carboxymethylcellulose (CMC).
[6] abbreviates: endpoint: mean survival time, dose: 100.0 mg/kg/injection, schedule: Q01DX001 (ip), vehicle: saline with Tween-80.
[7] abbreviates: endpoint: mean survival time, dose: 200.0 mg/kg/injection, schedule: Q01DX001 (ip), vehicle: saline with Tween-80.
[8] abbreviates: endpoint: mean survival time, dose: 400.0 mg/kg/injection, schedule: Q01DX001 (ip), vehicle: saline with Tween-80.

Toxic doses and inconclusive results are not listed.

Here are results for 16 molecules from PubChem BioAssay AID256 (DTP/NCI, 2004).

For the molecule `Cc1cn(C2CCC3(C)C(=CCC4C3CCC3(C)C(C(C)CCCC(C)C)CCC43)C2)c(=O)[nH]c1=O` (centres undefined), the T/C (endpoint: mean survival time, dose: 37.5 mg/kg/injection, schedule: Q01DX001 (ip), vehicle: Klucel (hydroxypropylcellulose) (HPC)) was 88 % of control; the T/C (endpoint: mean survival time, dose: 75.0 mg/kg/injection, schedule: Q01DX001 (ip), vehicle: Klucel (hydroxypropylcellulose) (HPC)) is 91 % of control; the T/C (endpoint: mean survival time, dose: 150.0 mg/kg/injection, schedule: Q01DX001 (ip), vehicle: Klucel (hydroxypropylcellulose) (HPC)) is 91 % of control; the T/C (endpoint: mean survival time, dose: 300.0 mg/kg/injection, schedule: Q01DX001 (ip), vehicle: Klucel (hydroxypropylcellulose) (HPC)) was 91 % of control.
With `CC(=O)OC1CC2CC(O)(C(=O)CO)CC2C2CCC3=CC(=O)CC3C(C)(O)C12` (centres undefined), the T/C is, setting by setting: (endpoint: mean survival time, dose: 75.0 mg/kg/injection, schedule: Q01DX001 (ip), vehicle: saline) 91 % of control; (endpoint: mean survival time, dose: 150.0 mg/kg/injection, schedule: Q01DX001 (ip), vehicle: saline) 96 % of control; (endpoint: mean survival time, dose: 300.0 mg/kg/injection, schedule: Q01DX001 (ip), vehicle: saline) 95 % of control.
For the molecule `CCCCCCC[CH2][Sn]1([CH2]CCCCCCC)[O]C2C(CO)OC(n3ccc4c(N)ncnc43)C2[O]1` (centres undefined), the T/C was 110 % of control (endpoint: mean survival time, dose: 0.78 mg/kg/injection, schedule: Q01DX005 (ip), vehicle: other); 107 % of control (endpoint: mean survival time, dose: 1.56 mg/kg/injection, schedule: Q01DX005 (ip), vehicle: other); 115 % of control (endpoint: mean survival time, dose: 3.13 mg/kg/injection, schedule: Q01DX005 (ip), vehicle: other); 102 % of control (endpoint: mean survival time, dose: 6.25 mg/kg/injection, schedule: Q01DX005 (ip), vehicle: other).
Turning to `COC(O)C1OC(c2ccccc2)OC2C(CO)OC(c3ccccc3)OC12` (centres undefined), the T/C under setting [1] was 90 % of control, the T/C under setting [2] was 90 % of control and the T/C under setting [3] was 90 % of control.
For the molecule `CCOC(=O)c1ccc2c(c1)Cc1cc(N)ccc1-2`, the T/C by setting is: under setting [4], 98 % of control; under setting [5], 95 % of control.
Take `O=C(O)c1ccc(S(=O)(=O)N(Cl)Cl)cc1`: the T/C is 109 % of control (endpoint: mean survival time, dose: 100.0 mg/kg/injection, schedule: Q04DX003 (ip), vehicle: saline with Tween-80); 95 % of control (endpoint: mean survival time, dose: 200.0 mg/kg/injection, schedule: Q04DX003 (ip), vehicle: saline with Tween-80); 95 % of control (endpoint: mean survival time, dose: 400.0 mg/kg/injection, schedule: Q04DX003 (ip), vehicle: saline with Tween-80).
As for `N.N.N.N.O=C(O)C1OCCOCCOC(C(=O)O)C(C(=O)O)OCCOCCOC1C(=O)O.[Pt+2].[Pt+2]` (centres undefined), the T/C was 100 % of control (endpoint: median survival time, dose: 0.39 mg/kg/injection, schedule: Q04DX003 (ip), vehicle: saline with Tween-80); 98 % of control (endpoint: median survival time, dose: 0.62 mg/kg/injection, schedule: Q04DX003 (ip), vehicle: saline); 107 % of control (endpoint: median survival time, dose: 0.78 mg/kg/injection, schedule: Q04DX003 (ip), vehicle: saline with Tween-80); 100 % of control (endpoint: median survival time, dose: 0.78 mg/kg/injection, schedule: Q04DX003 (ip), vehicle: saline); 98 % of control (endpoint: median survival time, dose: 1.25 mg/kg/injection, schedule: Q04DX003 (ip), vehicle: saline); 107 % of control (endpoint: median survival time, dose: 1.56 mg/kg/injection, schedule: Q04DX003 (ip), vehicle: saline with Tween-80). Moreover, the T/C is, setting by setting: (endpoint: median survival time, dose: 1.56 mg/kg/injection, schedule: Q04DX003 (ip), vehicle: saline) 101 % of control; (endpoint: median survival time, dose: 2.5 mg/kg/injection, schedule: Q04DX003 (ip), vehicle: saline) 98 % of control; (endpoint: median survival time, dose: 3.12 mg/kg/injection, schedule: Q04DX003 (ip), vehicle: saline with Tween-80) 110 % of control; (endpoint: median survival time, dose: 3.12 mg/kg/injection, schedule: Q04DX003 (ip), vehicle: saline) 107 % of control; (endpoint: median survival time, dose: 5.0 mg/kg/injection, schedule: Q04DX003 (ip), vehicle: saline) 102 % of control; (endpoint: median survival time, dose: 6.25 mg/kg/injection, schedule: Q04DX003 (ip), vehicle: saline with Tween-80) 118 % of control. The T/C runs as follows: (endpoint: median survival time, dose: 6.25 mg/kg/injection, schedule: Q04DX003 (ip), vehicle: saline) 103 % of control; (endpoint: median survival time, dose: 10.0 mg/kg/injection, schedule: Q04DX003 (ip), vehicle: saline) 111 % of control; (endpoint: median survival time, dose: 12.5 mg/kg/injection, schedule: Q04DX003 (ip), vehicle: saline) 107 % of control; (endpoint: median survival time, dose: 20.0 mg/kg/injection, schedule: Q04DX003 (ip), vehicle: saline) 111 % of control; (endpoint: median survival time, dose: 25.0 mg/kg/injection, schedule: Q04DX003 (ip), vehicle: saline with Tween-80) 167 % of control; (endpoint: median survival time, dose: 25.0 mg/kg/injection, schedule: Q04DX003 (ip), vehicle: saline) 123 % of control.
Regarding `C[S+](C)CC(=O)c1ccccc1`, the T/C (endpoint: mean survival time, dose: 50.0 mg/kg/injection, schedule: Q01DX009 (ip), vehicle: saline) was 97 % of control; the T/C (endpoint: mean survival time, dose: 100.0 mg/kg/injection, schedule: Q01DX009 (ip), vehicle: saline) was 106 % of control; the T/C (endpoint: mean survival time, dose: 200.0 mg/kg/injection, schedule: Q01DX009 (ip), vehicle: saline) was 107 % of control.
As to `CCOC(=O)Cc1ccnc(C)c1`, the T/C was 93 % of control under setting [6]; 100 % of control under setting [1]; 94 % of control under setting [7]; 103 % of control under setting [2]; 96 % of control under setting [8].
Take `O=C(O)CCN1CCCc2ccccc21`: the T/C was 109 % of control (endpoint: mean survival time, dose: 100.0 mg/kg/injection, schedule: Q01DX009 (ip), vehicle: other); 95 % of control (endpoint: mean survival time, dose: 100.0 mg/kg/injection, schedule: Q04DX003 (ip), vehicle: other); 103 % of control (endpoint: mean survival time, dose: 200.0 mg/kg/injection, schedule: Q01DX009 (ip), vehicle: other); 107 % of control (endpoint: mean survival time, dose: 200.0 mg/kg/injection, schedule: Q04DX003 (ip), vehicle: other); 96 % of control (endpoint: mean survival time, dose: 400.0 mg/kg/injection, schedule: Q04DX003 (ip), vehicle: other).
On to `COc1cc(OC)cc(C(c2nccc3cc(OC)c(OC)cc23)C(O)(C(F)(F)F)C(F)(F)F)c1` (centres undefined), for which the T/C is 97 % of control under setting [6]; 90 % of control under setting [1]; 93 % of control under setting [7]; 93 % of control under setting [2]; 86 % of control under setting [8]; 89 % of control under setting [3].
For `CCC[CH2][Sn]([Cl])([CH2]Cl)[CH2]CCC`, the T/C was 98 % of control (endpoint: mean survival time, dose: 2.5 mg/kg/injection, schedule: Q04DX003 (ip), vehicle: saline) and 97 % of control (endpoint: mean survival time, dose: 5.0 mg/kg/injection, schedule: Q04DX003 (ip), vehicle: saline).
Take `Cc1cc(-c2ccccc2)cc(=S)[nH]1`: the T/C under setting [4] was 88 % of control; the T/C under setting [5] is 94 % of control; the T/C (endpoint: mean survival time, dose: 400.0 mg/kg/injection, schedule: Q01DX001 (ip), vehicle: carboxymethylcellulose (CMC)) is 95 % of control.
For the molecule `NS(=O)(=O)c1ccc(NC(=S)NC(=O)c2cccc3ccccc23)cc1`, the T/C by setting is: under setting [1], 93 % of control; under setting [2], 93 % of control; under setting [3], 93 % of control.
Take `O=C1CCC2(C=C(Br)C(=O)C(Br)=C2)O1`: the T/C is 98 % of control (endpoint: mean survival time, dose: 5.0 mg/kg/injection, schedule: Q01DX009 (ip), vehicle: saline with Tween-80); 103 % of control (endpoint: mean survival time, dose: 5.0 mg/kg/injection, schedule: Q04DX003 (ip), vehicle: saline with Tween-80); 105 % of control (endpoint: mean survival time, dose: 10.0 mg/kg/injection, schedule: Q04DX003 (ip), vehicle: saline with Tween-80); 101 % of control (endpoint: mean survival time, dose: 20.0 mg/kg/injection, schedule: Q04DX003 (ip), vehicle: saline with Tween-80).
In the case of `COc1ccc(NC(=O)Nc2cccc(O)c2)c(Cl)c1`, the T/C is 95 % of control (endpoint: mean survival time, dose: 50.0 mg/kg/injection, schedule: Q01DX009 (ip), vehicle: Klucel (hydroxypropylcellulose) (HPC)); 98 % of control (endpoint: mean survival time, dose: 100.0 mg/kg/injection, schedule: Q01DX009 (ip), vehicle: Klucel (hydroxypropylcellulose) (HPC)); 102 % of control (endpoint: mean survival time, dose: 100.0 mg/kg/injection, schedule: Q04DX003 (ip), vehicle: Klucel (hydroxypropylcellulose) (HPC)); 95 % of control (endpoint: mean survival time, dose: 200.0 mg/kg/injection, schedule: Q01DX009 (ip), vehicle: Klucel (hydroxypropylcellulose) (HPC)); 112 % of control (endpoint: mean survival time, dose: 200.0 mg/kg/injection, schedule: Q04DX003 (ip), vehicle: Klucel (hydroxypropylcellulose) (HPC)); 104 % of control (endpoint: mean survival time, dose: 400.0 mg/kg/injection, schedule: Q04DX003 (ip), vehicle: Klucel (hydroxypropylcellulose) (HPC)).
